Structures can show the parent of a compound that is named as a salt.
Columns and labels:
HiBit-BRM fusion protein = target: T1, HiBit-BRM fusion protein (Homo sapiens, UniProt P51531); assay: HiBiT-BRM cell-based degradation assay (Nano-Glo HiBiT Lytic Detection, 24 h); details: HeLa cells expressing HiBiT-BRM; for DC50: read-out: BRM HiBit Degradation IC50; for BRM HiBit Degradation Maximum measured: top dose 30 μM
T1 construct: expressed in transfected cells
Procedure, shortened: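 Residual HiBiT-BRM in a stable HeLa line was measured by Nano-Glo lytic luminescence after 24 h compound exposure (top final dose 30 μM, 3-fold, 10 points, duplicate). Values are % degradation, scaled between DMSO-treated cells and cells given 2 μM of a known BRM/BRG1 degrader.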

[1] = target: T2, HiBit-BRG1 fusion protein (Homo sapiens, UniProt P51532); assay: HiBiT-BRG1 cell-based degradation assay (Nano-Glo HiBiT Lytic Detection, 24 h); details: HeLa cells expressing HiBit-BRG1 and LgBit; for DC50: read-out: BRG1 HiBit Degradation IC50; for Dmax: HeLa, top dose 30 μM, read-out: BRG1 HiBit Degradation Maximum measured
T2 construct: expressed in transfected cells
Procedure, shortened: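 Degradation is scaled from DMSO-treated cells (0%) to cells given 2 μM of a known BRM/BRG1 degrader (100%). HeLa cells stably carrying HiBiT-BRG1 plus LgBiT (5000/well) were lysed with Nano-Glo HiBiT detection reagent, shaken 10 min at RT, and luminescence read.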

T1 sequence (P51531 whole entry, the tested form may be a part): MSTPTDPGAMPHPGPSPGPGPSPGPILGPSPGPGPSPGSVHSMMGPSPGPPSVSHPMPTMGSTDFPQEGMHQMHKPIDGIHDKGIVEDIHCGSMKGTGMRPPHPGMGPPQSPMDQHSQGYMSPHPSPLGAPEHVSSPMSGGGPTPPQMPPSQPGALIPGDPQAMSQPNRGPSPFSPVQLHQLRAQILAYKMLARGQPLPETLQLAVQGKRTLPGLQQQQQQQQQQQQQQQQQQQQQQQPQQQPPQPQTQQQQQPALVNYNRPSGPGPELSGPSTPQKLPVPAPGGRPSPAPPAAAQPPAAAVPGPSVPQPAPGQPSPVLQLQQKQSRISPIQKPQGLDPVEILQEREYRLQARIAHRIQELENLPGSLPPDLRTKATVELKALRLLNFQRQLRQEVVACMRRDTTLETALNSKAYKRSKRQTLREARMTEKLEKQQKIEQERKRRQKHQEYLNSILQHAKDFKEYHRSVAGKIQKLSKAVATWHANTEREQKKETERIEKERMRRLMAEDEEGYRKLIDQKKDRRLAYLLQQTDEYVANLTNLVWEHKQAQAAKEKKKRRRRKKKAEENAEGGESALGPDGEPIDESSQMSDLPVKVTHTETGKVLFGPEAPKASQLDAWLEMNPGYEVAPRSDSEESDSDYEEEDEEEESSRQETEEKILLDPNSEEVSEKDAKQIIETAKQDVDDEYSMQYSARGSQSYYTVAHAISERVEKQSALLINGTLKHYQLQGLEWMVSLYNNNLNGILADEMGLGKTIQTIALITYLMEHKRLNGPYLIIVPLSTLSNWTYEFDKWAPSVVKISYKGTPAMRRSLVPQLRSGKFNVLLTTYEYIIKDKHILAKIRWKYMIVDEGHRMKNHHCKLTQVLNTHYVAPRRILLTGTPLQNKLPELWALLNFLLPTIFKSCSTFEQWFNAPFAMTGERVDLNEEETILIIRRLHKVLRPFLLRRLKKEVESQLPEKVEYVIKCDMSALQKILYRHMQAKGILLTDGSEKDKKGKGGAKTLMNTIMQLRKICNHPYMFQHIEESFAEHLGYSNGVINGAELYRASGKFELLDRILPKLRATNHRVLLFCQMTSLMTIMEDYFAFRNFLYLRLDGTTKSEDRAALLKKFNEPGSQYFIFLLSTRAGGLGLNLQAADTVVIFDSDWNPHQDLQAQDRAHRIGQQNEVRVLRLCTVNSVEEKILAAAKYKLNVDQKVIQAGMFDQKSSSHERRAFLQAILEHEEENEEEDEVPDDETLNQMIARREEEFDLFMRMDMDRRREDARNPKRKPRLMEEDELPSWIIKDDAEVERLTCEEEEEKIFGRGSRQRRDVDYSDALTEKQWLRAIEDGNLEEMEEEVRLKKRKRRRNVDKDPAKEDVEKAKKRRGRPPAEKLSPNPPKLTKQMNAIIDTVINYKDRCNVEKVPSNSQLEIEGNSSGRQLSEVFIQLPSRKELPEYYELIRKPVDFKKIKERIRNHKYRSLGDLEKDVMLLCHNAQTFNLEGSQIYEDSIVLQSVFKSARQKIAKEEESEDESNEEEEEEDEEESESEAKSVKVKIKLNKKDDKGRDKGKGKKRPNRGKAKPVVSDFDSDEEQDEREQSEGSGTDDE
T2 sequence (P51532 whole entry, the tested form may be a part): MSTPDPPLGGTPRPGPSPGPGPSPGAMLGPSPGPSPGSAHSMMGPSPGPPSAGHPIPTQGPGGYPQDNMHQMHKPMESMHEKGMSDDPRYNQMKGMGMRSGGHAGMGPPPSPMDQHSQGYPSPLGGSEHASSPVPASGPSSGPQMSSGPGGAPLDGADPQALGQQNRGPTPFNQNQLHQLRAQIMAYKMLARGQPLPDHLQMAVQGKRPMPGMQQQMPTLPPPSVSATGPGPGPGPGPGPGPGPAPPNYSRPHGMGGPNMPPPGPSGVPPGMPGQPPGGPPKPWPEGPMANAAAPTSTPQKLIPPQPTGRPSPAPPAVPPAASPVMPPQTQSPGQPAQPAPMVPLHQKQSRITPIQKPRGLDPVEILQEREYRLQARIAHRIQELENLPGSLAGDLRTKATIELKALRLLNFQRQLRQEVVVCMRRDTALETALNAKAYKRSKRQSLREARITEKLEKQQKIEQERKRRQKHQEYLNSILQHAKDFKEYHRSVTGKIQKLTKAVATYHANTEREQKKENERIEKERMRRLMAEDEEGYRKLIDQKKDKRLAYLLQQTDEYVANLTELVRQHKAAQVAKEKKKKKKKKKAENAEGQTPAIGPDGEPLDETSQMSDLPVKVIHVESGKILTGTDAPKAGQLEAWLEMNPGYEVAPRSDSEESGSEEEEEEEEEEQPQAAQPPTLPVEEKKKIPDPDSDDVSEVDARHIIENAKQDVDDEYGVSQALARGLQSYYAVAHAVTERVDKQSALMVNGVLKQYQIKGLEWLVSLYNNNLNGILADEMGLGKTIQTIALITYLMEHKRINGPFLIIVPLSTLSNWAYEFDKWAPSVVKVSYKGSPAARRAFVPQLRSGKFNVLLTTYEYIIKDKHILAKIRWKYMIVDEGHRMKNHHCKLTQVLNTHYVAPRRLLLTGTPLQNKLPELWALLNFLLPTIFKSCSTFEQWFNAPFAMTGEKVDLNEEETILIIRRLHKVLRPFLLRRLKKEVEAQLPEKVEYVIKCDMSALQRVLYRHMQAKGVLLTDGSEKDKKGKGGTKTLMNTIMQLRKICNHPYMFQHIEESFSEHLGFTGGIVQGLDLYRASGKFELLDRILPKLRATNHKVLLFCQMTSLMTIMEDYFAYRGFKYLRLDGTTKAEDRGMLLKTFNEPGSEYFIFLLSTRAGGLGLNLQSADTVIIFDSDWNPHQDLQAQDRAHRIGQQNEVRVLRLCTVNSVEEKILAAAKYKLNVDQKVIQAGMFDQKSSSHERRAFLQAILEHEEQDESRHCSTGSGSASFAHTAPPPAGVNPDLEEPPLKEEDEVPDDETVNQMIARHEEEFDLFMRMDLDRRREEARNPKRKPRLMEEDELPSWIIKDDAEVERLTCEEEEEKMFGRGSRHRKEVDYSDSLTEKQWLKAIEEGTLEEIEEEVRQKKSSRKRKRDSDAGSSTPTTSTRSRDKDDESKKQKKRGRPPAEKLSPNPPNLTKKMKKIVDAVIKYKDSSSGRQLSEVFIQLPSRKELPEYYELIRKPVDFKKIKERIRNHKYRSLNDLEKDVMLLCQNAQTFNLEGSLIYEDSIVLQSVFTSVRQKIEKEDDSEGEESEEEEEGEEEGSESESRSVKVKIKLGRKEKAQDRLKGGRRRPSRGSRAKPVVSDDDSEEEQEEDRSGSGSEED

| SMILES | DC50 (HiBit-BRM fusion protein) | BRM HiBit Degradation Maximum measured (HiBit-BRM fusion protein) | DC50 [1] | Dmax [1] |
| --- | --- | --- | --- | --- |
| CN(CCNc1ccc2c(c1)C(=O)N(C1CCC(=O)NC1=O)C2=O)C(=O)C1(c2cc(-c3cccc(-c4csc(NC(=O)CNC(=O)c5ccn(S(C)(=O)=O)c5)n4)c3)ccn2)CC1 (stereo not shown) [Compound 162, N-(2-[[2-(2,6-dioxopiperidin-3-yl)-1,3-dioxoisoindol-5-yl]amino]ethyl)-1-[4-[3-(2-[2-[(1-methanesulfonylpyrrol-3-yl)formamido]acetamido]-1,3-thiazol-4-yl)phenyl]pyridin-2-yl]-N-methylcyclopropane-1-carboxamide] | > 10 µM | C (‘C’ = Maximum degradation <50%) | > 10 µM | < 50% |
| Cc1ncsc1-c1ccc(CNC(=O)[C@@H]2C[C@@H](O)CN2C(=O)[C@@H](NC(=O)CN2CC3(CC(C(=O)NCc4cccc(-c5cccc(-c6csc(NC(=O)CNC(=O)c7ccn(S(C)(=O)=O)c7)n6)c5)c4)C3)C2)C(C)(C)C)cc1 [Compound 163, 2-([[(2S)-1-[(2S,4R)-4-hydroxy-2-([[4-(4-methyl-1,3-thiazol-5-yl)phenyl]methyl]carbamoyl)pyrrolidin-1-yl]-3,3-dimethyl-1-oxobutan-2-yl]carbamoyl]methyl)-N-[[3-(2-[2-[(1-methanesulfonylpyrrol-3-yl)formamido]acetamido]-1,3-thiazol-4-yl)-[1,1-biphenyl]-3-yl]methyl]-2-azaspiro[3.3]heptane-6-carboxamide] | 0.1 to 1 µM | B (‘B’ = Maximum degradation ≥50% and ≤75%) | > 10 µM | < 50% |
| Cc1ncsc1-c1ccc(CNC(=O)[C@@H]2C[C@@H](O)CN2C(=O)[C@@H](NCc2cccc(-c3cccc(-c4csc(NC(=O)CNC(=O)c5ccn(S(C)(=O)=O)c5)n4)c3)c2)C(C)(C)C)cc1 [Compound 164, (2S,4R)-4-hydroxy-1-[(2S)-2-([[3′-(2-[2-[(1-methanesulfonylpyrrol-3-yl)formamido]acetamido]-1,3-thiazol-4-yl)-[1,1′-biphenyl]-3-yl]methyl]amino)-3,3-dimethylbutanoyl]-N-[[4-(4-methyl-1,3-thiazol-5-yl)phenyl]methyl]pyrrolidine-2-carboxamide] | > 10 µM | C (‘C’ = Maximum degradation <50%) | > 10 µM | < 50% |
| CS(=O)(=O)n1ccc(C(=O)NCC(=O)Nc2nc(-c3cccc(-c4ccnc(N5CCN(c6ccc7c(c6)C(=O)N(C6CCC(=O)NC6=O)C7=O)CC5)c4)c3)cs2)c1 (stereo not shown) [Compound 165, N-[4-[3-(2-[4-[2-(2,6-dioxopiperidin-3-yl)-1,3-dioxoisoindol-5-yl]piperazin-1-yl]pyridin-4-yl)phenyl]-1,3-thiazol-2-yl]-2-[(1-methanesulfonylpyrrol-3-yl)formamido]acetamide trifluoroacetate] | > 10 µM | C (‘C’ = Maximum degradation <50%) | > 10 µM | < 50% |
| Cc1ncsc1-c1ccc(CNC(=O)[C@@H]2C[C@@H](O)CN2C(=O)[C@@H](NC(=O)CN2CC3(CN(CC(=O)NCc4cccc(-c5cccc(-c6csc(NC(=O)CNC(=O)c7ccn(S(C)(=O)=O)c7)n6)c5)c4)C3)C2)C(C)(C)C)cc1.O=C(O)C(F)(F)F [Compound 166, (2S,4R)-4-hydroxy-1-[(2S)-2-(2-[6-[([[3′-(2-[2-[(1-methanesulfonylpyrrol-3-yl)formamido]acetamido]-1,3-thiazol-4-yl)-[1,1′-biphenyl]-3-yl]methyl]carbamoyl)methyl]-2,6-diazaspiro[3.3]heptan-2-yl]acetamido)-3,3-dimethylbutanoyl]-N-[[4-(4-methyl-1,3-thiazol-5-yl)phenyl]methyl]pyrrolidine-2-carboxamide trifluoroacetate] | 0.1 to 1 µM | B (‘B’ = Maximum degradation ≥50% and ≤75%) | > 10 µM | < 50% |
| CS(=O)(=O)n1ccc(C(=O)NCC(=O)Nc2nc(-c3cccc(-c4ccnc(C5(C(=O)NCCNc6cccc7c6CN(C6CCC(=O)NC6=O)C7=O)CC5)c4)c3)cs2)c1 (stereo not shown) [Compound 169, N-(2-((4-(3-(2-(1-((2-((2-(2,6-dioxopiperidin-3-yl)-1-oxoisoindolin-4-yl)amino)ethyl)carbamoyl)cyclopropyl)pyridin-4-yl)phenyl)thiazol-2-yl)amino)-2-oxoethyl)-1-(methylsulfonyl)-1H-pyrrole-3-carboxamide] | > 10 µM | C (‘C’ = Maximum degradation <50%) | > 10 µM | < 50% |
| CS(=O)(=O)n1ccc(C(=O)N[C@@H](COCCCC(=O)NCCCCS(=O)(=O)CCCNc2cccc3c2C(=O)N(C2CCC(=O)NC2=O)C3=O)C(=O)Nc2nc(-c3ccccc3)cs2)c1 (stereo partly shown) [Compound 172] | > 10 µM | C (‘C’ = Maximum degradation <50%) | > 10 µM | < 50% |
| Cc1ncsc1-c1ccc(CNC(=O)[C@@H]2C[C@@H](O)CN2C(=O)[C@@H](NC(=O)COCCOCCNC(=O)CCCOC[C@H](NC(=O)c2ccn(S(C)(=O)=O)c2)C(=O)Nc2nc(-c3ccccc3)cs2)C(C)(C)C)cc1 [Compound 173, (2S,4R)-4-hydroxy-1-[(2S)-2-[2-[2-(2-[4-[(2S)-2-[(1-methanesulfonylpyrrol-3-yl)formamido]-2-[(4-phenyl-1,3-thiazol-2-yl)carbamoyl]ethoxy]butanamido]ethoxy)ethoxy]acetamido]-3,3-dimethylbutanoyl]-N-[[4-(4-methyl-1,3-thiazol-5-yl)phenyl]methyl]pyrrolidine-2-carboxamide] | > 10 µM | C (‘C’ = Maximum degradation <50%) | > 10 µM | < 50% |
| Cc1ncsc1-c1ccc(CNC(=O)C2CC(O)CN2C(=O)C(NC(=O)CCCCCCCNC(=O)c2ccc(COCC(NC(=O)c3ccn(S(C)(=O)=O)c3)C(=O)Nc3nc(-c4ccccc4)cs3)cc2)C(C)(C)C)cc1 (stereo not shown) [Compound 174] | 0.1 to 1 µM | B (‘B’ = Maximum degradation ≥50% and ≤75%) | 0.1 to 1 µM | 50 to 75% |
| CN(CCNC(=O)COc1cccc2c1C(=O)N(C1CCC(=O)NC1=O)C2=O)CCNC(=O)c1ccc(COC[C@H](NC(=O)c2ccn(S(C)(=O)=O)c2)C(=O)Nc2nc(-c3ccccc3)cs2)cc1 (stereo partly shown) [Compound 175] | > 10 µM | C (‘C’ = Maximum degradation <50%) | > 10 µM | < 50% |
| CS(=O)(=O)n1ccc(C(=O)N[C@@H](COCc2ccc(CNC(=O)CCN3CC4(C3)CN(c3ccc5c(c3)C(=O)N(C3CCC(=O)NC3=O)C5=O)C4)cc2)C(=O)Nc2nc(-c3ccccc3)cs2)c1 (stereo partly drawn) [Compound 176, (2S)-3-([4-[(3-[6-[2-(2,6-dioxopiperidin-3-yl)-1,3-dioxoisoindol-5-yl]-2,6-diazaspiro[3.3]heptan-2-yl]propanamido)methyl]phenyl]methoxy)-2-[(1-methanesulfonylpyrrol-3-yl)formamido]-N-(4-phenyl-1,3-thiazol-2-yl)propanamide] | 0.1 to 1 µM | B (‘B’ = Maximum degradation ≥50% and ≤75%) | 0.1 to 1 µM | 50 to 75% |

More lines, now with the values ahead:

| DC50 (HiBit-BRM fusion protein) | BRM HiBit Degradation Maximum measured (HiBit-BRM fusion protein) | DC50 [1] | Dmax [1] | SMILES |
| --- | --- | --- | --- | --- |
| < 0.1 µM | A (‘A’ = Maximum degradation >75%) | < 0.1 µM | > 75% | CS(=O)(=O)n1ccc(C(=O)NCC(=O)Nc2nc(-c3cccc(-c4ccnc(C5(C(=O)NCCNc6ccc7c(c6)CN(C6CCC(=O)NC6=O)C7=O)CC5)c4)c3)cs2)c1 (stereo not shown) [Compound 167, N-(2-[[2-(2,6-dioxopiperidin-3-yl)-1-oxo-3H-isoindol-5-yl]amino]ethyl)-1-[4-[3-(2-[2-[(1-methanesulfonylpyrrol-3-yl)formamido]acetamido]-1,3-thiazol-4-yl)phenyl]pyridin-2-yl]cyclopropane-1-carboxamide] |
| < 0.1 µM | A (‘A’ = Maximum degradation >75%) | < 0.1 µM | > 75% | CS(=O)(=O)n1ccc(C(=O)NCC(=O)Nc2nc(-c3cccc(-c4ccnc(C5(C(=O)NCCNc6ccc7c(c6)C(=O)N(C6CCC(=O)NC6=O)C7)CC5)c4)c3)cs2)c1 (stereo not shown) [Compound 168, N-(2-((4-(3-(2-(1-((2-((2-(2,6-dioxopiperidin-3-yl)-3-oxoisoindolin-5-yl)amino)ethyl)carbamoyl)cyclopropyl)pyridin-4-yl)phenyl)thiazol-2-yl)amino)-2-oxoethyl)-1-(methylsulfonyl)-1H-pyrrole-3-carboxamide] |
| 0.1 to 1 µM | A (‘A’ = Maximum degradation >75%) | 0.1 to 1 µM | > 75% | CC(C)(C)n1ccc(C(=O)N[C@@H](COCc2ccc(C(=O)NC3CCN(CCOc4ccc5c(c4)C(=O)N(C4CCC(=O)NC4=O)C5=O)CC3)cc2)C(=O)Nc2nc(-c3ccccc3)cs2)c1 (stereo partly drawn) [Compound 170, 4-[[(2S)-2-[(1-tert-butylpyrrol-3-yl)formamido]-2-[(4-phenyl-1,3-thiazol-2-yl)carbamoyl]ethoxy]methyl]-N-[1-(2-[[2-(2,6-dioxopiperidin-3-yl)-1,3-dioxoisoindol-5-yl]oxy]ethyl)piperidin-4-yl]benzamide] |
| < 0.1 µM | – | < 0.1 µM | – | CC(C)(C)n1ccc(C(=O)N[C@@H](COCc2ccc(C(=O)NCCOC3CN(c4ccc5c(c4)C(=O)N(C4CCC(=O)NC4=O)C5=O)C3)cc2)C(=O)Nc2nc(-c3ccccc3)cs2)c1 (stereo partly shown) [Compound 171] |

From patent US12662479B2 (Foghorn Therapeutics Inc., priority 2020, dated 2026)
